For assay [1], the system named is neutrophils. Nature of the assay: Inhibition of neutrophil chemotaxis (Boyden type chemotaxis chamber). In kind it is cell-based, human. The settings on record: isolated neutrophils, chemoattractant in lower chamber, one to three hours at 37 C, effective concentrations of inhibitor. Here is the method: Neutrophils were isolated from peripheral blood donated by healthy volunteers. Twenty milliliters of whole blood containing ACD ([…]) as an anticoagulant was layered over twenty milliliters Ficoll-Pacque Plus (Stem Cell Technologies, Vancouver, BC) and centrifuged for 45 minutes at 1500 rpm. Following centrifugation, the red blood cell layer (also containing the granulocytes) at the bottom of the tube was retained in the centrifugation tube while the top layers were removed. The red blood cell and granulocytes were combined with an equal volume of 3% Dextran 500 (Amersham Biosciences, Uppsala, Sweden) and mixed gently. The red blood cells were allowed to sediment for 30 minutes. […] The cells were resuspended in Hank's Balanced Salt Solution (HBSS, Invitrogen, Grand Island, N.Y.), and counted on a hemacytometer. […] Cell viability was determined through trypan blue exclusion and was greater than 95%. […]
Chemoattractant compounds (e.g. fMLP) are prepared as 20 mM stock solutions and dissolved in either DMSO or water. […] The number of migrated cells is determined by microscopy and counting the number of cells per high powered field.
Inhibitors of neutrophil chemotaxis are identified using a Boyden type chemotaxis chamber. […] The number of migrated cells is determined by microscopy and counting the number of cells per high powered field.

Assay [2] relates to neutrophils. Nature of the assay: LPS model of acute pulmonary inflammation in rat. In kind it is in vivo. The text has this: The administration of lipopolysaccharides (LPS) from gram-negative bacteria cell walls to the lungs of rats results in a rapid increase in the total number of leukocytes in the lumen of the lungs. The increase of neutrophils in the lung in the LPS model represents the conditions present a patients with chronic respiratory diseases such as cystic fibrosis, chronic bronchitis, emphysema, and certain subtypes of asthma. The LPS model of acute pulmonary inflammation is a well-established model for testing compounds having potential activities in treating inflammatory airway diseases.
Compound 11 (35 mg/kg) or vehicle (0.5% aqueous methylcellulose) was orally administered to groups of rats 15 minutes prior to pulmonary aerosolized LPS (˜2 micrograms/rat) or placebo (air) exposure (20 minute exposure) and 2.5 and 5 hours following the initial oral administration. Eight hours after pulmonary administration of aerosolized LPS, the lungs were lavaged to obtain bronchoalveolar lavage fluid, containing accumulated leukocytes.

Regarding `CCNC(=O)Nc1ncnc2c1ncn2C1OC(CCC(=O)O)C2OC(/C=C/c3ccccc3)OC21` (stereo not drawn) [Compound 11, trans-3-{6-[6-(3-ethyl-ureido)-purin-9-yl]-2-styryl-tetrahydro-furo[3,4-d][1,3]dioxol-4-yl}-propionic acid], in the assay on neutrophils [1], the “number of migrated neutrophils” value was “significant decrease”. In addition, in the assay with neutrophils [2] (rats treated with compound compared with animals not receiving it, acute model of pulmonary inflammation), the “number of neutrophils found in the lumen of the lungs (FIG. 1)” value is on record as “significant reduction”. Besides, in the assay on neutrophils [2] (rats, 35 mg/kg oral 15 min prior to aerosolized LPS and 2.5 and 5 hours after first dose, lavage 8 hours after LPS, vs vehicle and LPS, p<0.001), the “decrease in the number of neutrophils recovered in the lavage fluid” value came out at 56.6%.
